Earlier results on one molecule are cited in patent US20060275223A1, “Erythritol compositions for teeth and gums” (priority 2005, published 2006).

SMILES strings stand for the structures.

For this data set the following is noted: erythritol comprises 20% of the diet.

With `OC[C@@H](O)[C@@H](O)CO` [erythritol], the diarrhea result is listed as “does not cause diarrhea”.
